Patent US12440479B2, “Prevention or treatment of chronic organ injury” (GEORG-AUGUST-UNIVERSITAET GOETTINGEN, STIFTUNG …, priority 2018, dated 2025)

How the values were obtained:
parenchymal organs = settings: LB-100 2 mg/kg in combination with FK506 0.2 mg/kg s.c. or GPI-1046 10 mg/kg s.c.
Description: Mice were injected intraperitoneally with 2 mg/kg body weight LB-100 (LDN, Sigma, St. Louis, USA) every alternate day starting at the day of surgery, control mice received equivalent volume of vehicle buffer.

ARNT/HIF1β homodimer = ARNT/HIF1β homodimer formation upon PP1/PP2A inhibition; settings: for ARNT/HIF1β homodimer formation: Okadaic acid: PP1/PP2A inhibition, Tautomycin: PP1, LB-100: PP2A
Excerpt: Based on previous reports that combined inhibition of PP1/PP2A with Okadaic acid is capable to induce ARNT/HIF1β homodimer formation and transactivation activity by directly blocking ARNT dephosphorylation (163), the inventors first confirmed enhanced […] homodimer formation upon PP1/PP2A inhibition (FIG. 57A). […] See also FIG. 58.

FKBP12, YY1, ARNT = test: In vivo-morpholino knockdown: intrarenal protein levels (immunostaining, immunoblotting); settings: UUO mice, VMO 12.5 mg/kg intraperitoneally, vs control-VMO
Description: Mice were injected intraperitoneally with 12.5 mg/kg body weight in vivo-morpholinos (Gene Tools, Philomath, USA) in saline at a final volume of 100 μL every other day starting two days prior of surgery (114), sequence alignments were performed using NCBI Nucleotide Blast and are listed in Tables 3-5 (157). A control in vivo-morpholino that targets a human β-globin intron mutation was used as standard control (116).
(§1) For immunofluorescent staining, primary antibodies against ARNT (5537S, Cell Signaling, Danvers, USA), Hif1α (H6535, Sigma, St. Louis, USA), Hif2α (ab20654, Abcam Biochemicals, Cambridge, UK), phosphorylated Smad1/5/8 (pSmad1/5/8, sc-12353, Santa Cruz Biotechnology, Dallas, USA), CD45 (550539, BD Biosciences, Franklin Lakes, USA), Collagen-1 (ab34710, Abcam Biochemicals, Cambridge, UK), α-smooth muscle actin (aSMA, A5228, Sigma, St. Louis, USA), FKBP12 (ab2918, Abcam Biochemicals, Cambridge, UK) and YY1 (ab12132, Abcam Biochemicals, Cambridge, UK) were used, secondary antibodies were labeled with Alexa Fluor 488 or 568 (Life Technologies, Carlsbad, USA). Renal basement membranes were stained with antibodies against Collagen-4 (1340-30, SouthernBiotech, Birmingham, USA), cardiac cell membranes with antibodies against WGA (W11261, Life Technologies, Carlsbad, USA). Nuclear staining was performed using 4′,6-diamidino-2-phenylindole (DAPI, Vector Laboratories, Burlingame, USA). Relative areas positive for Collagen-1, aSMA, tubular nuclei positive for ARNT and pSmad1/5/8 were quantified in 10 high power fields per section at 400× magnification.
Tissue and cells were homogenized in NP40 lysis buffer (Life technologies, Carlsbad, USA) supplemented with protease inhibitor cocktail (Roche, Basel, Switzerland). […] Luminescence was detected by using chemiluminescent substrate (Cell Signaling, Danvers, USA) on a ChemiDoc XRS system (Bio-Rad, Hercules, USA). […]

UUO-challenged kidneys = test: Unilateral ureteral obstruction (UUO): tubular injury and interstitial fibrosis (histology, immunostaining); assay type: in vivo, mice; settings: UUO; for tubular injury and tubulointerstitial fibrosis: VMO 12.5 mg/kg intraperitoneally or FK506 0.2 mg/kg orally per day; for effect of FK506 on ALK3 expression or reno-protection: VMO added to FK506
[1] = tested on: intrarenal ARNT/ALK3 signaling; test: UUO kidneys: ARNT/ALK3 expression and pSmad1/5/8 (qRT-PCR, immunoblotting, immunostaining); assay type: in vivo, mice; settings: for intrarenal ARNT, ALK3 and nuclear pSmad1/5/8 immunostaining: UUO, VMO 12.5 mg/kg intraperitoneally or FK506 0.2 mg/kg orally per day
Description: Eight to twelve weeks-old C57/6, yGTcre−;Yy1fl/fl and yGTcre+;Yy1fl/fl mice were anesthetized with isoflurane inhalation (2-3%), analgesia was performed by subcutaneous injection of 0.1 mg/kg body weight per day Buprenorphine. The ureter was separated from the surrounding tissues and two ligatures were placed about 5 mm apart in upper two-thirds of the left ureter to obtain reliable obstruction. Mice were sacrificed 3, 7 or 10 days after ureteral obstruction for further analyses, as described before (53, 153-155).
Paraffin-embedded specimens were deparaffinized in xylene and rehydrated in ethanol containing distilled water. Tissue sections were stained using polyclonal antibodies against ALK3 (sc-20736, Santa Cruz Biotechnology, Dallas, USA) and ARNT (3718S, Cell Signaling, Danvers, USA), peroxidase labeling was performed using Vectastain Universal Elite ABC Kit (Vector Laboratories, Burlingame, USA) according to the manufacturer's protocol. AEC Substrate-Chromogen (Dako, Glostrup, Denmark) was applied for peroxidase visualization according to the manufacturer's protocol. Nuclear counterstain was performed by using Mayer's Hematoxylin Solution (Sigma, St. Louis, USA).
as §1
For SYBR-based real-time PCR, cDNA synthesis was performed by using DNase I digestion (Invitrogen, Carlsbad, USA) and SuperScript II Reverse Transcriptase (Invitrogen, Carlsbad, USA) according to the manufacturer's protocol. 1 μL of reverse-transcribed cDNA was added to the reaction mixture containing the primer pair (200 nmol/L each) and diluted 2× Fast SYBR Green Master Mix (Applied Biosystems, Carlsbad, USA) in a final volume of 20 μL for each PCR reaction. The real-time PCR reactions were performed in a 96-well reaction plate using the StepOne Plus Real-Time System (Applied Biosystems, Carlsbad, USA) and were done in triplicates. An initiation step at 95° C. for 20 seconds was followed by 40 cycles at 95° C. for 3 to seconds and 60° C. for 30 seconds, with one cycle of dissociation at 95° C. for 15 seconds, 60° C. for 60 seconds, and 95° C. for 15 seconds. The intercalation of SYBR Green dye and its fluorescent signal is directly proportional to the amount of amplified DNA and was transformed into the cycle threshold (Ct). For normalization, the Ct values of the housekeeping genes Gapdh and Actb were subtracted from the Ct values of the gene of interest to generate the dCt values. The relative expression levels were calculated using the equation 2^−ddCt.
Tissue and cells were homogenized in NP40 lysis buffer (Life technologies, Carlsbad, USA) supplemented with protease inhibitor cocktail (Roche, Basel, Switzerland).

[2] = FK506 0.02-5.0 mg/kg or CsA 10 mg/kg orally per day starting one day prior to UUO

## CN1CCN(C(=O)C2C(C(=O)O)[C@H]3CC[C@@H]2O3)CC1 (stereo partly drawn) [LB-100]
Parenchymal organs
  protection by FK506/GPI-1046: enhances protection
ARNT/HIF1β homodimer
  ARNT/HIF1β homodimer formation: enhanced
ARNT/HIF1β homodimer; by protection from degradation
  endogenous ARNT: effectively increases
ARNT/HIF1β homodimer; in the presence of LB-100
  ARNT homodimer formation (mass spectrometry): enhancement

## C=C1[C@@H](O)[C@@H]2O[C@]3(CC[C@H](/C=C/[C@@H](C)[C@@H]4CC(C)=C[C@@]5(O[C@H](C[C@@](C)(O)C(=O)O)CC[C@H]5O)O4)O3)CC[C@H]2O[C@@H]1[C@@H](O)C[C@H](C)[C@H]1O[C@@]2(CCCCO2)CC[C@H]1C [Okadaic acid]
ARNT/HIF1β homodimer
  ARNT/HIF1β homodimer formation: enhanced

## CO[C@H]([C@H](O)CC(=O)[C@@H](C)[C@@H](O)CC[C@@H](C)[C@@H]1O[C@]2(CC[C@@H](C)[C@H](CC[C@H](C)C(C)=O)O2)CC[C@@H]1C)[C@H](OC(=O)C[C@@H](O)C1=C(C)C(=O)OC1=O)C(C)C [Tautomycin]
ARNT/HIF1β homodimer
  ARNT/HIF1β homodimer formation: did not affect

## Arnt-VMO: in vivo-morpholinos targeting translational start site of Arnt (antisense AAGAGCCACTCCGCAGATTAGGCAC; all phosphorodiamidate morpholino (PMO); in vivo-morpholino, delivery moiety not given here, further chemistry not fully specified)
FKBP12, YY1, ARNT
  intrarenal protein levels of respective transcript: effectively reduced

## Cyclosporine A [CsA]
UUO-challenged kidneys; [2]
  chronic tubular injury: failed to attenuate
  interstitial fibrosis: failed to attenuate
[1]; UUO-challenged murine kidneys, treatment starting one day prior
  expression of ALK3: failed to induce

## Fkbp12-VMO: in vivo-morpholinos targeting translational start site of Fkbp12 (SEQ ID NO: 9) (antisense AGATGGTCTCCACCTGCACTCCCAT; all phosphorodiamidate morpholino (PMO); in vivo-morpholino, delivery moiety not given here, further chemistry not fully specified)
UUO-challenged kidneys
  tubular injury and tubulointerstitial fibrosis: attenuated
  effect of FK506 on ALK3 expression or reno-protection: did not further enhance
FKBP12, YY1, ARNT
  intrarenal protein levels of respective transcript: effectively reduced
[1]
  intrarenal ARNT, ALK3 and nuclear pSmad1/5/8 immunostaining: equally induced

## Yy1-VMO: in vivo-morpholinos targeting translational start site of Yy1 (SEQ ID NO: 10) (antisense TGTAGAGGGTGTCGCCCGAGGCCAT; all phosphorodiamidate morpholino (PMO); in vivo-morpholino, delivery moiety not given here, further chemistry not fully specified)
UUO-challenged kidneys
  tubular injury and tubulointerstitial fibrosis: attenuated
  effect of FK506 on ALK3 expression or reno-protection: did not further enhance
FKBP12, YY1, ARNT
  intrarenal protein levels of respective transcript: effectively reduced
[1]
  intrarenal ARNT, ALK3 and nuclear pSmad1/5/8 immunostaining: equally induced
